These results are taken from patent publication US10399966B2, “Compounds for treatment of trypanosomes and neurological pathogens and uses thereof” (The University of North Carolina at Chapel Hill, priority 2016, dated 2019).

One data set deals with human hepatocytes HepG2. Kind of data set: Cytotoxicity against HepG2 cells. As to conditions: for EC50: Homo sapiens, HepG2, read-out: HepG2 EC50; for EC90: read-out: HepG2 EC90, concentration required to inhibit growth by 90%, human hepatocytes.
A further data set concerns Trypanosoma cruzi. Kind of data set: Efficacy against T. cruzi in vitro. The data set is classed as cell-based. As to conditions: Trypanosoma cruzi.
Data set [1] is described as follows: Distribution between mouse plasma and brain (brain penetration, ip). The data set is classed as in vivo. The conditions noted are these: for Brain/plasma ratio / [compound]Brain / [compound]Plasma: Table 14, mice, single ip dose 5 mg/kg, one hour post-dose; for [compound]Brain / [compound]Plasma: ± SEM of 3 mice (compound 3: 6 mice); for concentration at 1 h / Kp at 1 h: mouse, 5 mg/kg; for Kp at 1 h: read-out: Average brain/plasma ratio. Here is the method: For distribution of compounds between mouse plasma and brain, mice (in groups of 3) were injected with test compounds (5 mg/kg ip) and sacrificed at the indicated times for collection of plasma and brain. Compound was dissolved in 0.4 mL of dosing solution (7% Tween 80, 3% ethanol, 5% DMSO, 0.9% saline) for ip injections. The brains were weighed and immediately frozen, then later homogenized in acetonitrile using a Dounce homogenizer. Prior to animal studies, recovery of test compound was carried out by adding a known amount to a mouse brain in the test extraction solvent and performing the homogenization. Compound recovery was determined by liquid chromatography/tandem mass spectrometry analysis relative to a standard compound amount. Blood was taken from the same mice in heparinized capillary tubes (Fisherbrand) for determination of compound concentration in plasma. The concentration of compound in the brain was obtained by dividing the moles of compound in the brain by the brain volume (obtained from the brain weight assuming 1 g is 1 mL) and correcting for the brain vasculature volume of 2.5% by weight.
Brain penetration studies (Table 14) were initially performed upon compounds 1, 2, and 3, but were expanded to include other compounds in order to explore the SAR of brain penetration. Groups of three mice were given single 5 mg/kg ip doses of the test compounds and were sacrificed 1 h post-dose.

In data set [2] the test system is human lymphocytes CRL-8155. Kind of data set: Cytotoxicity against CRL-8155 cells. As to conditions: human lymphoblasts; for EC50: read-out: CRL-8155 EC50, concentration required to inhibit growth by 50%; for EC90: read-out: CRL-8155 EC90, concentration required to inhibit growth by 90%.
Method: The selectivity of each compound for the parasite over each of the two cell lines was calculated.
Another data set concerns T. b. brucei. Put plainly: In vitro antitrypanosomal activity against T. brucei (growth inhibition). It counts as cell-based, Trypanosoma brucei. The conditions noted are these: Trypanosoma brucei; for EC90: read-out: T. brucei EC90. Here is the method:
Primary hits from the screen were further characterized using a dose-response assay format to determine the EC50. In parallel, the cytotoxicities of these compounds were determined against a proliferating human hepatoma cell line (Huh7). […] SI—CC50/EC50). The final set of confirmed T. brucei hits consisted of 1035 inhibitors. […] In vitro antitrypanosomal activities against T. b. rhodesiense (STIB9000) and cytotoxicities against L6 rat myoblast cells were measured following established protocols (Orhan et al., Mar. Drugs 8:47 (2010). […] All wells including negative controls contained a final of 0.4% DMSO. After incubation of the plates at 37° C. for 48 h, the parasite density was determined using the CellTiter-Glo reagent (Promega), a firefly luciferase assay system that measures the amount of cellular ATP present in plate wells.

Where [3] appears, read: Table 11, read-out: T. b. brucei EC50.
[4] abbreviates: Table 9, read-out: T. brucei EC50.
Setting [5] is: Table 16, read-out: T. Cruzi EC50.
Where [6] appears, read: Table 16, read-out: T. b. brucei EC50.

Read-outs that look alike come from different tables or passages of the source. A value given as a limit tells only on which side of the number the result lay.

Regarding `O=C(Nc1ccc2sc(-c3ccc(F)c(F)c3)nc2c1)N1CC[C@@H](F)C1` [Compound 4, (R)-2-(3,4-Difluorophenyl)-5-(3-fluoro-N-pyrrolidylamido)benzothiazole], the EC50 is more than 50 µM with human hepatocytes HepG2; 0.491 µM in the data set on Trypanosoma cruzi (Table 6, read-out: T. cruzi EC50); 0.968 µM in the data set with Trypanosoma cruzi (Table 10, read-out: T.cruzi EC50); more than 50 µM in data set [2]; 0.326 µM in the data set with T. b. brucei (Table 6, read-out: T. brucei EC50); 0.326 µM in the data set on T. b. brucei (Table 8, read-out: T. brucei EC50). Also, the EC50 with T. b. brucei (setting [3]) and in the data set on T. b. brucei (setting [4]) was 0.326 µM throughout. In addition, the EC90 with human hepatocytes HepG2 was more than 50 µM; with Trypanosoma cruzi (Table 10, read-out: T.cruzi EC90), 1.54 µM; in data set [2], more than 50 µM; in the data set on T. b. brucei (Table 9), 0.491 µM. Further, in data set [1], the Brain/plasma ratio was 4.86 ± 1.055. Moreover, the “[compound]Brain” value in data set [1] worked out at 6.35 ± 2.257 µM. Also, in data set [1], the “[compound]Plasma” value came to 1.20 ± 0.270 µM. The concentration at 1 h in data set [1] (in vivo, Table 8, groups of 3 mice (compound 3: ± SEM of 6 mice), read-out: Average [compound] brain) worked out at 6350 ± 3910 nM; in data set [1] (in vivo, Table 8, groups of 3 mice (compound 3: ± SEM of 6 mice), read-out: Average [compound] plasma), 1200 ± 467 nM. In addition, in data set [1] (in vivo, Table 8, groups of 3 mice), the Kp at 1 h turned out to be 4.86 ± 1.83.
Consider `O=C(Nc1ccc2oc(-c3ccccc3)nc2c1)N1CCCC1` [Compound 8, 2-Phenyl-5-N-pyrrolidylamidobenzoxazole], for which the Brain/plasma ratio in data set [1] came to 1.58 ± 0.484. The “[compound]Brain” value in data set [1] amounted to 0.397 ± 0.077 µM. Also, the “[compound]Plasma” value in data set [1] amounted to 0.270 ± 0.036 µM. Moreover, the Kp at 1 h in data set [1] (brain and plasma, intraperitoneal, Table 7, groups of 3 mice) turned out to be 1.58 ± 0.839. Also, the concentration at 1 h in data set [1] (brain, intraperitoneal, Table 7, groups of 3 mice, read-out: Average [compound] brain) was 397 ± 130 nM; in data set [1] (plasma, intraperitoneal, Table 7, groups of 3 mice, read-out: Average [compound] plasma) it was 270 ± 62 nM. In addition, the EC50 stood at 5.25 µM in the data set with T. b. brucei (Table 7, read-out: T. brucei EC50) and 5.25 µM in the data set on T. b. brucei (setting [4]). In addition, in the data set on T. b. brucei (Table 9), the EC90 was more than 10 µM.
For `O=C(Nc1ccc2sc(-c3ccccc3)nc2c1)N1CCSC1` [Compound 22], the melting point lay in the range of 177 to 179 °C. Moreover, the EC50 with T. b. brucei (setting [4]) came to 1.24 µM. The EC90 in the data set with T. b. brucei (Table 9) stood at 2.38 µM.
The like results for `O=C(Nc1ccc2sc(-c3ccccc3)nc2c1)N1CC=CCC1` [Compound 24, N-(2-Phenylbenzo[d]thiazol-5-yl)-3,6-dihydropyridine-1(2H)-carboxamide] were, in that order, 199 to 200 °C, 1.12 µM and 1.35 µM.
The like results for `O=C(Nc1ccc2sc(-c3ccc(F)cc3)nc2c1)c1ccccc1` [Compound 25, 5-Benzamido-2-(4-fluorophenyl)benzothiazole] were, in that order, 232.5 to 233.5 °C, 1.92 µM and 3 µM.
`O=C(Nc1ccc2sc(-c3cccc(F)c3)nc2c1)c1ccccc1` [Compound 28, 5-Benzamido-2-(3-fluorophenyl)benzothiazole] yielded a melting point of 221 to 222 °C. The EC50 in the data set on T. b. brucei (setting [4]) amounted to 1.78 µM. The EC90 with T. b. brucei (Table 9) worked out at 3.62 µM.
The like results for `CN1CCN(C(=O)Nc2ccc3sc(-c4cccc(F)c4)nc3c2)CC1` [Compound 30, N-(2-(3-Fluorophenyl)benzothiazol-5-yl)-4-methylpiperazine-1-carboxamide] were, in that order, 224 to 226 °C, 3.15 µM and 7.55 µM.
As to `O=C(Nc1ccn2cc(-c3ccc(F)c(F)c3)nc2c1)N1CC[C@H](F)C1` [Compound 41, (3S)-N-[2-(3,4-difluorophenyl)imidazo[1,2-a]pyridin-7-yl]-3-fluoropyrrolidine-1-carboxamide], the EC50 in the data set on Trypanosoma cruzi (setting [5]) was 0.39 µM; in the data set on T. b. brucei (setting [6]), 0.16 µM.
Consider `O=C(Nc1ccn2cc(-c3ccc(F)c(F)c3)nc2c1)N1CCCC1` [Compound 42, N-[2-(3,4-difluorophenyl)imidazo[1,2-a]pyridin-7-yl]pyrrolidine-1-carboxamide], for which the EC50 in the data set with Trypanosoma cruzi (setting [5]) was determined as 2.24 µM; in the data set on T. b. brucei (setting [6]), 0.32 µM.
The like results for `O=C(Nc1ccn2cc(-c3ccc(F)c(F)c3)nc2c1)N1CCCCC1` [Compound 43, N-[2-(3,4-difluorophenyl)imidazo[1,2-a]pyridin-7-yl]piperidine-1-carboxamide] were, in that order, 2.84 µM and 1.2 µM.
The like results for `O=C(Nc1ccn2cc(-c3cccc(F)c3F)nc2c1)N1CC[C@H](F)C1` [Compound 44, (3S)-N-[2-(2,3-difluorophenyl)imidazo[1,2-a]pyridin-7-yl]-3-fluoropyrrolidine-1-carboxamide] were, in that order, 0.94 µM and 0.18 µM.
The like results for `O=C(Nc1ccn2cc(-c3cccc(F)c3F)nc2c1)N1CCCC1` [Compound 45, N-[2-(2,3-difluorophenyl)imidazo[1,2-a]pyridin-7-yl]pyrrolidine-1-carboxamide] were, in that order, 1.02 µM and 0.58 µM.
In the case of `O=C(Nc1ccn2cc(-c3cccc(F)c3F)nc2c1)N1CCCCC1` [Compound 46, N-[2-(2,3-difluorophenyl)imidazo[1,2-a]pyridin-7-yl]piperidine-1-carboxamide], the concentration giving a half-maximal response (EC50) with Trypanosoma cruzi (setting [5]) is 1 µM; in the data set on T. b. brucei (setting [6]) it was 0.72 µM.
The like results for `O=C(Nc1ccn2cc(-c3cccc(F)c3)nc2c1)N1CC[C@H](F)C1` [Compound 47, (3S)-3-fluoro-N-[2-(3-fluorophenyl)imidazo[1,2-a]pyridin-7-yl]pyrrolidine-1-carboxamide] were, in that order, 0.71 µM and 0.16 µM.
The like results for `O=C(Nc1ccn2cc(-c3cccc(F)c3)nc2c1)N1CCCC1` [Compound 48, N-[2-(3-fluorophenyl)imidazo[1,2-a]pyridin-7-yl]pyrrolidine-1-carboxamide] were, in that order, 2.95 µM and 0.73 µM.
The like results for `O=C(Nc1ccn2cc(-c3cccc(F)c3)nc2c1)N1CCCCC1` [Compound 49, N-[2-(3-fluorophenyl)imidazo[1,2-a]pyridin-7-yl]piperidine-1-carboxamide] were, in that order, 3.1 µM and 0.97 µM.
Turning to `O=C(Nc1ccn2cc(-c3ccccc3)nc2c1)N1CC[C@H](F)C1` [Compound 50, (3S)-3-fluoro-N-{2-phenylimidazo[1,2-a]pyridin-7-yl}pyrrolidine-1-carboxamide], the EC50 in the data set with Trypanosoma cruzi (setting [5]) is 1.08 µM; with T. b. brucei (setting [6]) it was 0.62 µM.
For the compound `O=C(Nc1ccn2cc(-c3ccccc3)nc2c1)N1CCCC1` [Compound 51, N-{2-phenylimidazo[1,2-a]pyridin-7-yl}pyrrolidine-1-carboxamide], the values for the EC50 in the data set with Trypanosoma cruzi (setting [5]) and in the data set with T. b. brucei (setting [6]) were 4.46 µM and 2.23 µM, respectively.
Take `O=C(Nc1ccn2cc(-c3ccccc3)nc2c1)N1CCCCC1` [Compound 52, N-{2-phenylimidazo[1,2-a]pyridin-7-yl}piperidine-1-carboxamide]: the EC50 in the data set on Trypanosoma cruzi (setting [5]) came to 2.75 µM; in the data set on T. b. brucei (setting [6]), 2.51 µM.
In the case of `O=C(Nc1cc2nc(-c3ccc(F)c(F)c3)cn2cn1)N1CC[C@H](F)C1` [Compound 53, (3S)-N-[2-(3,4-difluorophenyl)imidazo[1,2-c]pyrimidin-7-yl]-3-fluoropyrrolidine-1-carboxamide], the EC50 with Trypanosoma cruzi (setting [5]) stood at 0.09 µM; in the data set on T. b. brucei (setting [6]), 0.02 µM.
The like results for `O=C(Nc1ccn2cc(-c3ccc(F)c(F)c3)nc2n1)N1CC[C@H](F)C1` [Compound 54, (3S)-N-[2-(3,4-difluorophenyl)imidazo[1,2-a]pyrimidin-7-yl]-3-fluoropyrrolidine-1-carboxamide] were, in that order, 2.53 µM and more than 20 µM.
For `N=C(N)c1ccc(OCCCCCOc2ccc(C(=N)N)cc2)cc1` [penth, Pentamidine, reference compound], the results for the EC50 (in the data set on human hepatocytes HepG2; in data set [2]; in the data set on T. b. brucei (setting [3])) were more than 100 µM, 45.4 µM and 0.00105 µM, respectively. In addition, the EC90 (with human hepatocytes HepG2; in data set [2]) was more than 100 µM throughout.

The EC50 is the concentration giving half of the maximal effect. Usually EC90 stands for the concentration at which the effect reaches the 90% level. As usually defined, the melting point is the temperature of the solid-liquid transition.
